Values of other authors as cited in patent publication US5721209A, “Iron chelator and inhibitor of iron-mediated oxidant injury” (The Regents of the University of California, priority 1995, dated 1998).
Where two headings read alike, the source gives them in different places.

Experiments:
[1] = according to Macham
[2] = prior known iron chelator
neuroblastoma cells = conditions: removal of iron; growth of normal cells not similarly affected
ischemic myocardium = conditions: for prevention of reperfusion injury / myocardial infarct size: administered prior to reperfusion / prior to occurrence of the myocardial infarct

mycobactin
solubility [1]: water insoluble

O=C(O)CN(CCN(CC(=O)O)CC(=O)O)CC(=O)O [EDTA]
prevention of (.cndot.OH) production by the Fenton reaction [2]: do not prevent (.cndot.OH) production by the Fenton reaction

CC(=O)N(O)CCCCCNC(=O)CCC(=O)N(O)CCCCCNC(=O)CCC(=O)N(O)CCCCCN [deferoxamine]
growth of neuroblastoma cells (neuroblastoma cells): negatively affected
prevention of reperfusion injury (ischemic myocardium; administered at or after the onset of reperfusion): ineffective
prevention of reperfusion injury / myocardial infarct size (ischemic myocardium): prevents injury and reduces myocardial infarct size
prevention of reperfusion injury / myocardial infarct size (ischemic myocardium; listed as Desferoxamine): effective
